According to US20230085307A1, “PYRIDAZINONE COMPOUND AND HERBICIDE” (NISSAN CHEMICAL CORPORATION, priority 2019, published 2023):

Legend:
Japanese bulrush = assay: Test Example 1: herbicidal activity, application before weed generation under submerged conditions (Table 16, symbol B); format: in vivo, Japanese bulrush (Schoenoplectus juncoides); settings: 320 g/ha applied herbicide
Summary of the method: (§1)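 Submerged Wagner pots (alluvial soil, 4 cm water) sown with weed seeds and planted with 2.5-leaf rice seedlings; emulsifiable concentrate diluted in water applied to water surface on sowing day. Held in greenhouse at 25-30 °C; injury scored 0-5 by herbicidal rate after three weeks.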

oval-leafed pondweed = assay: Test Example 1: herbicidal activity, application before weed generation under submerged conditions (Table 16, symbol C); format: in vivo, oval-leafed pondweed (Monochoria vaginalis); settings: 320 g/ha applied herbicide
Summary of the method: as §1

late watergrass = assay: Test Example 2: herbicidal activity, application during weed generation under submerged conditions (Table 17, symbol A); format: in vivo, late watergrass (Echinochloa oryzicola); settings: AAH 320 g/ha; application during weed generation, submerged conditions
Summary of the method: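 Effect on each weed is rated three weeks post-treatment, using the same scoring criteria as the preceding test. Plants grow from mixed-sown seed in flooded alluvial soil (4 cm water) at 25° C. to 30° C., and are treated at one to two leaves with diluted emulsion dropped onto the water.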

barnyard grass [1] = assay: Test Example 3: herbicidal effect by foliage application, Wagner pot (Table 18, symbol H); format: in vivo, barnyard grass (Echinochloa crus-galli); settings: amount of applied herbicide 320 g/ha
Summary of the method: (§2)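 Plants were sown in alluvial soil held under 0.1–0.5 cm standing water and grown 14 days in a greenhouse at 25–30 °C. An emulsifiable formulation, water-diluted to the set dose, was then sprayed onto the foliage, and effects were scored three weeks later using previously defined criteria.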

Chinese sprangletop = assay: Test Example 3: herbicidal effect by foliage application, Wagner pot (Table 18, symbol D); format: in vivo, chinese sprangletop (Leptochloa chinensis); settings: amount of applied herbicide 320 g/ha
Summary of the method: as §2

rice flat sedge = assay: Test Example 3: herbicidal effect by foliage application, Wagner pot (Table 18, symbol E); format: in vivo, rice flat sedge (Cyperus iria); settings: amount of applied herbicide 320 g/ha
Summary of the method: as §2

barnyard grass [2] = assay: Test Example 4: herbicidal effect by soil treatment (Table 19, symbol H); format: in vivo, barnyard grass (Echinochloa crus-galli); settings: amount of applied herbicide 320 g/ha
Summary of the method: (§3)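 Seeds were sown in sterilized diluvial soil and covered with about 1.5 cm of soil. An emulsion formulation diluted with water to a predetermined herbicide amount was sprayed evenly onto the soil surface. Plants grew in a greenhouse at 25° C. to 30° C., and the effect was scored three weeks after application using criteria from an earlier test.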

wild oat [3] = assay: Test Example 4: herbicidal effect by soil treatment (Table 19, symbol I); format: in vivo, wild oat (Avena fatua); settings: amount of applied herbicide 320 g/ha
Summary of the method: as §3

windgrass [4] = assay: Test Example 4: herbicidal effect by soil treatment (Table 19, symbol L); format: in vivo, windgrass (Apera spica-venti); settings: amount of applied herbicide 320 g/ha
Summary of the method: as §3

velvetleaf [5] = assay: Test Example 4: herbicidal effect by soil treatment (Table 19, symbol M); format: in vivo, velvetleaf (Abutilon theophrasti); settings: amount of applied herbicide 320 g/ha
Summary of the method: as §3

lambsquarters = assay: Test Example 4: herbicidal effect by soil treatment (Table 19, symbol O); format: in vivo, lambsquarters (Chenopodium album); settings: amount of applied herbicide 320 g/ha
Summary of the method: as §3

green foxtail = assay: Test Example 5: herbicidal effect by foliage application, plastic box (Table 20, symbol G); format: in vivo, green foxtail (Setaria viridis); settings: foliage application, AAH 320 g/ha, evaluated three weeks after application
Summary of the method: (§4)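 Plants sown in sterilized diluvial soil and grown 14 days in a greenhouse at 25° C to 30° C, then sprayed on the foliage with the compound's emulsion diluted in water to a predetermined herbicide amount. Injury to weeds and crops scored three weeks after application on a visual rating scale.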

wild oat [6] = assay: Test Example 5: herbicidal effect by foliage application, plastic box (Table 20, symbol I); format: in vivo, wild oat (Avena fatua); settings: foliage application, AAH 320 g/ha, evaluated three weeks after application
Summary of the method: as §4

blackgrass = assay: Test Example 5: herbicidal effect by foliage application, plastic box (Table 20, symbol J); format: in vivo, blackgrass (Alopecurus myosuroides); settings: foliage application, AAH 320 g/ha, evaluated three weeks after application
Summary of the method: as §4

windgrass [7] = assay: Test Example 5: herbicidal effect by foliage application, plastic box (Table 20, symbol L); format: in vivo, windgrass (Apera spica-venti); settings: foliage application, AAH 320 g/ha, evaluated three weeks after application
Summary of the method: as §4

velvetleaf [8] = assay: Test Example 5: herbicidal effect by foliage application, plastic box (Table 20, symbol M); format: in vivo, velvetleaf (Abutilon theophrasti); settings: foliage application, AAH 320 g/ha, evaluated three weeks after application
Summary of the method: as §4

chickweed = assay: Test Example 5: herbicidal effect by foliage application, plastic box (Table 20, symbol P); format: in vivo, common chickweed (Stellaria media); settings: foliage application, AAH 320 g/ha, evaluated three weeks after application
Summary of the method: as §4

Row | Structure (SMILES) | Herbicidal effect on B: Japanese bulrush (grade 0-5) (Japanese bulrush) | Herbicidal effect on C: oval-leafed pondweed (grade 0-5) (oval-leafed pondweed) | herbicidal effect rating, A: late watergrass (late watergrass) | herbicidal effect on H: barnyard grass (barnyard grass [1]) | herbicidal effect on D: Chinese sprangletop (Chinese sprangletop) | herbicidal effect on E: rice flat sedge (rice flat sedge) | herbicidal effect on H: barnyard grass (barnyard grass [2]) | herbicidal effect on I: wild oat (wild oat [3]) | herbicidal effect on L: windgrass (windgrass [4]) | herbicidal effect on M: velvetleaf (velvetleaf [5]) | herbicidal effect on O: lambsquarters (lambsquarters) | G: green foxtail, herbicidal effect (criteria 0-5) (green foxtail) | I: wild oat, herbicidal effect (criteria 0-5) (wild oat [6]) | J: blackgrass, herbicidal effect (criteria 0-5) (blackgrass) | L: windgrass, herbicidal effect (criteria 0-5) (windgrass [7]) | M: velvetleaf, herbicidal effect (criteria 0-5) (velvetleaf [8]) | P: chickweed, herbicidal effect (criteria 0-5) (chickweed)
1 | Cc1nn(C)c(=O)c(-c2c(-c3ccc(S(C)(=O)=O)cc3)sc3ccc(F)cc23)c1O [2-258] | 3 (Herbicidal rate of 40% or more and less than 70%) | 0 (Herbicidal rate of 5% or less (almost no effect)) | 4 (Herbicidal rate of 70% or more and less than 90%) | 5 (Herbicidal rate of 90% or more (almost completely withered)) | 5 (Herbicidal rate of 90% or more (almost completely withered)) | 5 (Herbicidal rate of 90% or more (almost completely withered)) | 5 (Herbicidal rate of 90% or more (almost completely withered)) | 3 (Herbicidal rate of 40% or more and less than 70%) | 4 (Herbicidal rate of 70% or more and less than 90%) | 3 (Herbicidal rate of 40% or more and less than 70%) | 4 (Herbicidal rate of 70% or more and less than 90%) | 5 (Herbicidal rate of 90% or more (almost completely withered)) | 5 (Herbicidal rate of 90% or more (almost completely withered)) | 5 (Herbicidal rate of 90% or more (almost completely withered)) | 5 (Herbicidal rate of 90% or more (almost completely withered)) | 5 (Herbicidal rate of 90% or more (almost completely withered)) | 5 (Herbicidal rate of 90% or more (almost completely withered))
2 | COCC(=O)Oc1c(C)nn(C)c(=O)c1-c1c(-c2ccc(OC(F)F)cc2)sc2ccc(F)cc12 [2-283] | 5 (Herbicidal rate of 90% or more (almost completely withered)) | 3 (Herbicidal rate of 40% or more and less than 70%) | 5 (Herbicidal rate of 90% or more (almost completely withered)) | 5 (Herbicidal rate of 90% or more (almost completely withered)) | 4 (Herbicidal rate of 70% or more and less than 90%) | 5 (Herbicidal rate of 90% or more (almost completely withered)) | 5 (Herbicidal rate of 90% or more (almost completely withered)) | 0 (Herbicidal rate of 5% or less (almost no effect)) | 4 (Herbicidal rate of 70% or more and less than 90%) | 5 (Herbicidal rate of 90% or more (almost completely withered)) | 5 (Herbicidal rate of 90% or more (almost completely withered)) | 5 (Herbicidal rate of 90% or more (almost completely withered)) | 3 (Herbicidal rate of 40% or more and less than 70%) | 4 (Herbicidal rate of 70% or more and less than 90%) | 5 (Herbicidal rate of 90% or more (almost completely withered)) | 5 (Herbicidal rate of 90% or more (almost completely withered)) | 5 (Herbicidal rate of 90% or more (almost completely withered))
